Measurements from PubChem BioAssay (NCI).
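A five-concentration, 48-hour dose response in 96-well plates underlies each endpoint, interpolated linearly between surrounding concentrations. TGI: total growth inhibition.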

Legend:
Test in all cases: NCI anticancer screen, dose series, 48 h
786-0 renal = test system: 786-0 renal
A498 renal = test system: A498 renal
A549 NSCLC = test system: A549 NSCLC
ACHN renal = test system: ACHN renal
BT-549 breast = test system: BT-549 breast
CAKI-1 renal = test system: CAKI-1 renal
CCRF-CEM leukemia = test system: CCRF-CEM leukemia
COLO 205 colon = test system: COLO 205 colon
DU-145 prostate = test system: DU-145 prostate
EKVX NSCLC = test system: EKVX NSCLC
HCC-2998 colon = test system: HCC-2998 colon
HCT-116 colon = test system: HCT-116 colon
HCT-15 colon = test system: HCT-15 colon
HL-60(TB) leukemia = test system: HL-60(TB) leukemia
HOP-62 NSCLC = test system: HOP-62 NSCLC
HOP-92 NSCLC = test system: HOP-92 NSCLC
HS 578T breast = test system: HS 578T breast
HT29 colon = test system: HT29 colon
IGROV1 ovarian = test system: IGROV1 ovarian
K-562 leukemia = test system: K-562 leukemia
KM12 colon = test system: KM12 colon
LOX IMVI melanoma = test system: LOX IMVI melanoma
M14 melanoma = test system: M14 melanoma
MCF7 breast = test system: MCF7 breast
MDA-MB-231 breast = test system: MDA-MB-231 breast
MDA-MB-435 = test system: MDA-MB-435
MDA-N = test system: MDA-N
MOLT-4 leukemia = test system: MOLT-4 leukemia
NCI-H226 lung = test system: NCI-H226 lung
NCI-H23 lung = test system: NCI-H23 lung
NCI-H460 lung = test system: NCI-H460 lung
NCI-H522 lung = test system: NCI-H522 lung
NCI/ADR-RES ovarian = test system: NCI/ADR-RES ovarian
OVCAR-3 ovarian = test system: OVCAR-3 ovarian
OVCAR-4 ovarian = test system: OVCAR-4 ovarian
OVCAR-5 ovarian = test system: OVCAR-5 ovarian
OVCAR-8 ovarian = test system: OVCAR-8 ovarian
PC-3 prostate = test system: PC-3 prostate
RPMI-8226 leukemia = test system: RPMI-8226 leukemia
RXF 393 renal = test system: RXF 393 renal
SF-268 CNS = test system: SF-268 CNS
SF-295 CNS = test system: SF-295 CNS
SF-539 CNS = test system: SF-539 CNS
SK-MEL-2 melanoma = test system: SK-MEL-2 melanoma
SK-MEL-28 melanoma = test system: SK-MEL-28 melanoma
SK-MEL-5 melanoma = test system: SK-MEL-5 melanoma
SK-OV-3 ovarian = test system: SK-OV-3 ovarian
SN12C renal = test system: SN12C renal
SNB-19 CNS = test system: SNB-19 CNS
SNB-75 CNS = test system: SNB-75 CNS
SR leukemia = test system: SR leukemia
SW-620 colon = test system: SW-620 colon
T-47D breast = test system: T-47D breast
TK-10 renal = test system: TK-10 renal
U251 CNS = test system: U251 CNS
UACC-257 melanoma = test system: UACC-257 melanoma
UACC-62 melanoma = test system: UACC-62 melanoma
UO-31 renal = test system: UO-31 renal
MALME-3M melanoma = test system: MALME-3M melanoma

## O=C1C[C@@H](C(=O)OCc2ccccc2)NC(=O)C[C@@H](C(=O)OCc2ccccc2)NC(=O)C[C@@H](C(=O)OCc2ccccc2)N1
786-0 renal
  TGI: > 100 µM
A498 renal
  TGI: > 95.1 µM
A549 NSCLC
  TGI: > 100 µM
ACHN renal
  TGI: > 62.9 µM
BT-549 breast
  TGI: > 100 µM
CAKI-1 renal
  TGI: > 100 µM
CCRF-CEM leukemia
  TGI: 2.01 µM
COLO 205 colon
  TGI: > 100 µM
DU-145 prostate
  TGI: > 100 µM
EKVX NSCLC
  TGI: > 100 µM
HCC-2998 colon
  TGI: > 100 µM
HCT-116 colon
  TGI: > 100 µM
HCT-15 colon
  TGI: > 100 µM
HL-60(TB) leukemia
  TGI: 9.88 µM
HOP-62 NSCLC
  TGI: > 88.5 µM
HOP-92 NSCLC
  TGI: > 60.7 µM
HS 578T breast
  TGI: 72.3 µM
HT29 colon
  TGI: > 100 µM
IGROV1 ovarian
  TGI: > 100 µM
K-562 leukemia
  TGI: 21.8 µM
KM12 colon
  TGI: > 100 µM
LOX IMVI melanoma
  TGI: > 100 µM
M14 melanoma
  TGI: > 100 µM
MCF7 breast
  TGI: > 100 µM
MDA-MB-231 breast
  TGI: 70.9 µM
MDA-MB-435
  TGI: > 100 µM
MDA-N
  TGI: > 100 µM
MOLT-4 leukemia
  TGI: 27.3 µM
NCI-H226 lung
  TGI: > 100 µM
NCI-H23 lung
  TGI: > 100 µM
NCI-H460 lung
  TGI: > 100 µM
NCI-H522 lung
  TGI: > 100 µM
NCI/ADR-RES ovarian
  TGI: > 100 µM
OVCAR-3 ovarian
  TGI: > 100 µM
OVCAR-4 ovarian
  TGI: > 100 µM
OVCAR-5 ovarian
  TGI: > 100 µM
OVCAR-8 ovarian
  TGI: > 100 µM
PC-3 prostate
  TGI: > 100 µM
RPMI-8226 leukemia
  TGI: > 100 µM
RXF 393 renal
  TGI: 41.8 µM
SF-268 CNS
  TGI: 85.8 µM
SF-295 CNS
  TGI: > 100 µM
SF-539 CNS
  TGI: > 72.3 µM
SK-MEL-2 melanoma
  TGI: 66.1 µM
SK-MEL-28 melanoma
  TGI: > 100 µM
SK-MEL-5 melanoma
  TGI: > 100 µM
SK-OV-3 ovarian
  TGI: 97.1 µM
SN12C renal
  TGI: > 100 µM
SNB-19 CNS
  TGI: > 100 µM
SNB-75 CNS
  TGI: 13.7 µM
SR leukemia
  TGI: 20.7 µM
SW-620 colon
  TGI: > 100 µM
T-47D breast
  TGI: > 100 µM
TK-10 renal
  TGI: 73.6 µM
U251 CNS
  TGI: > 100 µM
UACC-257 melanoma
  TGI: > 100 µM
UACC-62 melanoma
  TGI: > 100 µM
UO-31 renal
  TGI: > 100 µM

## O=C1NC(=O)C(C(CC(=O)c2ccc([N+](=O)[O-])cc2)c2ccccc2)C(=O)N1 (centres undefined)
786-0 renal
  TGI: > 100 µM
A498 renal
  TGI: > 100 µM
A549 NSCLC
  TGI: > 100 µM
ACHN renal
  TGI: > 100 µM
BT-549 breast
  TGI: > 100 µM
CCRF-CEM leukemia
  TGI: > 100 µM
COLO 205 colon
  TGI: > 100 µM
DU-145 prostate
  TGI: > 100 µM
HCT-116 colon
  TGI: 28 µM
HCT-15 colon
  TGI: > 100 µM
HL-60(TB) leukemia
  TGI: > 100 µM
HOP-62 NSCLC
  TGI: > 100 µM
HOP-92 NSCLC
  TGI: > 100 µM
HS 578T breast
  TGI: 31.7 µM
HT29 colon
  TGI: > 100 µM
IGROV1 ovarian
  TGI: > 100 µM
K-562 leukemia
  TGI: > 100 µM
KM12 colon
  TGI: 30.4 µM
LOX IMVI melanoma
  TGI: 38.7 µM
M14 melanoma
  TGI: > 100 µM
MALME-3M melanoma
  TGI: 42.9 µM
MCF7 breast
  TGI: 27 µM
MDA-MB-231 breast
  TGI: > 100 µM
MDA-MB-435
  TGI: > 100 µM
MDA-N
  TGI: > 100 µM
MOLT-4 leukemia
  TGI: > 100 µM
NCI-H226 lung
  TGI: > 100 µM
NCI-H23 lung
  TGI: 95.1 µM
NCI-H460 lung
  TGI: > 100 µM
NCI-H522 lung
  TGI: > 100 µM
NCI/ADR-RES ovarian
  TGI: > 100 µM
OVCAR-3 ovarian
  TGI: > 100 µM
OVCAR-4 ovarian
  TGI: > 100 µM
OVCAR-5 ovarian
  TGI: > 100 µM
OVCAR-8 ovarian
  TGI: > 100 µM
PC-3 prostate
  TGI: > 100 µM
RPMI-8226 leukemia
  TGI: > 100 µM
RXF 393 renal
  TGI: 55.8 µM
SF-268 CNS
  TGI: > 100 µM
SF-295 CNS
  TGI: 54.9 µM
SF-539 CNS
  TGI: > 100 µM
SK-MEL-2 melanoma
  TGI: > 100 µM
SK-MEL-28 melanoma
  TGI: > 100 µM
SK-MEL-5 melanoma
  TGI: > 100 µM
SK-OV-3 ovarian
  TGI: > 100 µM
SN12C renal
  TGI: > 100 µM
SNB-19 CNS
  TGI: > 100 µM
SNB-75 CNS
  TGI: > 100 µM
SR leukemia
  TGI: > 100 µM
SW-620 colon
  TGI: > 100 µM
T-47D breast
  TGI: 67 µM
TK-10 renal
  TGI: 7.73 µM
U251 CNS
  TGI: > 100 µM
UACC-257 melanoma
  TGI: > 100 µM
UACC-62 melanoma
  TGI: > 100 µM
UO-31 renal
  TGI: > 100 µM
